Key:
Assay type in all cases: functional
[1] = tested on: Lepidoptera; experiment: Insecticidal activity against Lepidoptera infected rice plant assessed as white earhead damage at 0.75 kg ai/ha applied as emulsified concentrates through foliar spray on 30 to 50 days post planting (reference value: 12.17%)
[2] = tested on: Lepidoptera; experiment: Insecticidal activity against Lepidoptera infected rice plant assessed as dead heart damage at 0.75 kg ai/ha applied as emulsified concentrates through foliar spray on 30 to 50 days post planting (reference value: 11.87%)
[3] = tested on: Lepidoptera; experiment: Insecticidal activity against Lepidoptera infected rice plant assessed as increase in grain yield at 0.75 kg ai/ha applied as emulsified concentrates through foliar spray on 30 to 50 days post planting (reference value: 28%)
[4] = tested on: Lepidoptera; experiment: Insecticidal activity against Lepidoptera infected rice plant assessed as increase in grain yield (reference value: 28%)
[5] = tested on: Lepidoptera; experiment: Insecticidal activity against Lepidoptera infected rice plant assessed as dead heart damage (reference value: 11.87%)
[6] = tested on: Lepidoptera; experiment: Insecticidal activity against Lepidoptera infected rice plant assessed as white earhead damage (reference value: 12.17%)
[7] = tested on: Lepidoptera; experiment: Insecticidal activity against Lepidoptera infected rice plant assessed as dead heart damage at 1 kg ai/ha applied as granules on 30 to 50 days post planting (reference value: 11.87%)
[8] = tested on: Lepidoptera; experiment: Insecticidal activity against Lepidoptera infected rice plant assessed as increase in grain yield at 1 kg ai/ha applied as granules on 30 to 50 days post planting (reference value: 28%)
[9] = tested on: Lepidoptera; experiment: Insecticidal activity against Lepidoptera infected rice plant assessed as white earhead damage at 1 kg ai/ha applied as granules on 30 to 50 days post planting (reference value: 12.17%)

SMILES	Activity [1]	Activity [2]	Crop_yield [3]	Crop_yield [4]	Activity [5]	Activity [6]	Activity [7]	Crop_yield [8]	Activity [9]
CCOP(=S)(OCC)Oc1cc(C)nc(C(C)C)n1 [DIMPYLATE]	3.19%	8.14%	42%	–	–	–	–	–	–
CNC(=O)/C=C(\C)OP(=O)(OC)OC [MONOCROTOPHOS]	–	–	–	37%	4.76%	6.31%	–	–	–
CCOP(=O)(/N=C1\SCC(C)S1)OCC (stereo unspecified) [CYTROLANE]	–	–	–	–	–	–	3.63%	32%	3.14%
CCOP(=S)(OCC)Oc1cnc2ccccc2n1 [QUINALPHOS]	–	–	–	28%	4.12%	6.33%	–	–	–
CCOP(=S)(OCC)Oc1nc(Cl)c(Cl)cc1Cl [CHLORPYRIFOS]	6.72%	7.26%	36%	–	–	–	5.39%	37%	6.18%
CNC(=O)Oc1cccc2c1OC(C)(C)C2 [CARBOFURAN]	–	–	–	–	–	–	4.15%	35%	5.14%

Source: ChEMBL document CHEMBL3045186, “Assessments of crop losses in rice ecosystems due to stem borer damage (Lepidoptera: Pyralidae)” (2006)
